Where “and” joins values, the source holds several entries; their conditions need not be identical. Equal values may be shown once.
Columns and labels:
[1] = molecular target: full-length wt-BTK enzyme (Homo sapiens (Human), UniProt Q06187); experiment: Biochemical kinase assay wt-BTK (IMAP)
In short: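 Compound and enzyme (final 1.2 nM) were pre-incubated for 1 h at RT, after which the reaction was started with 4 μM ATP plus 50 nM fluorescein-MBP substrate peptide. After 2 h in the dark, the IMAP progressive binding reagent stopped the reaction, and phosphorylation was read by fluorescence polarization.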

[2] = molecular target: full-length BTK C481S enzyme (Homo sapiens (Human), UniProt Q06187, C481S); experiment: Biochemical kinase assay BTK C481S (IMAP)
Sequence of full-length BTK C481S enzyme (Q06187 whole entry C481S): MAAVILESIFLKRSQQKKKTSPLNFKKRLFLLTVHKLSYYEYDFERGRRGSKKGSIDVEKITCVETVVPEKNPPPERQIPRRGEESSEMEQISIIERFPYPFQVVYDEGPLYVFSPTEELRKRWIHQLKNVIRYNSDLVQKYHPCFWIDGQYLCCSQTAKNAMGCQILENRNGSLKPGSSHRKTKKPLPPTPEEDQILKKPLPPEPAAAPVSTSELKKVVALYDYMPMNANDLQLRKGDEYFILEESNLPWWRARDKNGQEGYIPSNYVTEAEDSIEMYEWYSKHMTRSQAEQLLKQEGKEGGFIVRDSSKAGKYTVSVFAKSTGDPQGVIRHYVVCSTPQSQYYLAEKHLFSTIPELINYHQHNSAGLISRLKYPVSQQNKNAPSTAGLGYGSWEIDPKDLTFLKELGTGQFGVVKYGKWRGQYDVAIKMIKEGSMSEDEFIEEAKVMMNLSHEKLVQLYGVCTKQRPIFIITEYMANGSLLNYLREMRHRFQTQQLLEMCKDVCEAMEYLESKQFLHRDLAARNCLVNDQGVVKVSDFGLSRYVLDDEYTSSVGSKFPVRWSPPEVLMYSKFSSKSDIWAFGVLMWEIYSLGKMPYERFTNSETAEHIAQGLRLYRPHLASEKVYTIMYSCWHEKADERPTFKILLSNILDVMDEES
In short: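 IC50 values come from IMAP fluorescence polarization after quenching with progressive binding solution. The reaction ran 2 h at room temperature in the dark with 1.2 nM full-length C481S enzyme, 7 μM ATP and 50 nM fluorescein-labelled MBP-derived peptide, following a 1 h dark pre-incubation of compound with enzyme.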

[3] = tested on: wt-REC-1 mantle cell lymphoma cells; experiment: Cell proliferation assay wt-REC-1 (ATPlite, 72 hours); assay type: cell-based; settings: 72 h; read-out: IC50 wt-REC-1
In short: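 Luminescent viability read over 72 h, start-of-incubation signal recorded separately to separate growth from cell death. Percentage growth referenced to compound-free 0.3% DMSO wells; IC50 from 4-parameter logistic fit.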

REC-1 T474I cell lines = experiment: Cell proliferation assay REC-1 BTK T474I knock-in cells (ATPlite, 72 hours); assay type: cell-based; settings: Homo sapiens, Rec1; 72 hours; read-out: IC50 REC-1 T474I
In short: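 REC-1 cells carrying CRISPR knock-in mutant BTK, single-cell cloned and sequence-confirmed, were exposed to compound for 72 h and read by ATPlite luminescence. Percentage growth was calculated against the signal at the start of incubation and against untreated 0.3% DMSO wells as maximum growth.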

wt-BTK = wt-BTK (Homo sapiens (Human), UniProt Q06187); experiment: Binding kinetics measurements (Surface Plasmon Resonance) on wt-BTK; settings: for Kd: binding affinity by Surface Plasmon Resonance (SPR); for Tau (h) wt-BTK (Act): target residence time, SPR
Sequence of wt-BTK (Q06187 whole entry): as the sequence (Q06187 whole entry C481S) above, with S481C counted along it
Method: (§1) Binding kinetics measurements on wt-BTK, BTK […], BTK […], BTK […] and BTK […] (Surface Plasmon Resonance) Streptavidin-coated chips (Cat. No. BR100531), disposables and maintenance kits for Biacore were purchased from Cytiva (Eindhoven, The Netherlands). […] Remaining streptavidin was blocked with biocytin. Immobilization was performed at 4° C. Subsequent assay steps were conducted at 22° C. After changing buffer to Biacore buffer with 1% (v/v) dimethylsulfoxide (DMSO), a pre-run was performed for a period of at least 30 min at a flow rate of 30 μl/min to obtain a stable surface. The kinetic constants of the compounds were determined with single cycle kinetics with five consecutive injections with an increasing compound concentration with ranges of 3.16-316 nM. […] To circumvent problems of mass transport limitation, a flow rate of 30 μl/min was used. A blank run with the same conditions was performed before the compound was injected. The SPR sensorgrams were analyzed with Biacore Evaluation Software by using a method of double referencing. First the reference channel was subtracted from the channel containing immobilized protein. Subsequently, the reference curve obtained with buffer injections was subtracted. […] Compounds that bound according to an induced fit model were fitted with a two-state reaction model. The kinetic constants (ka, […], KD) of duplicates were geometrically averaged. […] Target residence for an induced fit model was calculated as described (Tummino and Copeland, 2008).

BTK T474I = BTK T474I (Homo sapiens (Human), UniProt Q06187, T474I); experiment: Binding kinetics measurements (Surface Plasmon Resonance) on BTK T474I; settings: for Kd: binding affinity by Surface Plasmon Resonance (SPR); for Tau (h) BTK T474I (Act): target residence time, SPR
Sequence of BTK T474I (Q06187 whole entry T474I): as the sequence (Q06187 whole entry C481S) above, with T474I, S481C counted along it
Method: as §1

BTK T474S = BTK T474S (Homo sapiens (Human), UniProt Q06187, T474S); experiment: Binding kinetics measurements (Surface Plasmon Resonance) on BTK T474S; settings: for residence time: SPR binding kinetics, BTK T474S, read-out: Tau (h) BTK T474S (Act), target residence time (converted)
Sequence of BTK T474S (Q06187 whole entry T474S): as the sequence (Q06187 whole entry C481S) above, with T474S, S481C counted along it
Method: as §1

[4] = tested on: wt-TMD8 diffuse large B-cell lymphoma cells; experiment: Cell proliferation assay wt-TMD8 (ATPlite, 120 hours); assay type: cell-based; settings: B-cell; wt-TMD8 cells, 120 hours, ATPlite; read-out: IC50 wt-TMD8
In short: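 Readout is percentage growth from ATPlite 1Step luminescence after 5 days (120 h) compound treatment of wt-TMD8 lymphoma cells (1600/well, RPMI-1640 + 10% FBS). Time-zero signal separates growth inhibition from cell kill; 0.3% DMSO wells without compound define maximal growth.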

BTK C481S = BTK C481S (Homo sapiens (Human), UniProt Q06187, C481S); experiment: Binding kinetics measurements (Surface Plasmon Resonance) on BTK C481S; settings: for Tau (h) BTK C418S (Act): target residence time for BTK C481S, SPR
Sequence of BTK C481S (Q06187 whole entry C481S): as the sequence (Q06187 whole entry C481S) above
Method: as §1

[5] = binding affinity by Surface Plasmon Resonance (SPR)

Sequence of full-length wt-BTK enzyme (Q06187 whole entry): as the sequence (Q06187 whole entry C481S) above, with S481C counted along it

Row | SMILES | IC50 [1] [nM] | IC50 [2] [nM] | IC50 [3] [nM] | IC50 (REC-1 T474I cell lines) [nM] | Kd (wt-BTK) [nM] | Kd (BTK T474I) | residence time (BTK T474S) [h] | Kd (BTK T474S; [5]) [nM] | IC50 [4] [nM] | Kd (BTK C481S; [5]) [nM] | Tau (h) BTK C418S (Act) (BTK C481S) [h] | Tau (h) wt-BTK (Act) (wt-BTK) [h] | Tau (h) BTK T474I (Act) (BTK T474I) [h]
1 | COc1ccc(F)cc1C(=O)NCc1ccc(-c2nn3c4c(cnc(N)c24)/C=C/COCC(=O)N[C@@H]2CCC[C@@H]3C2)cc1 [Example 52] | < 5 | < 5 | 100 to 1000 | 500 to 10000 | < 5 | 10 to 50 nM and < 5 nM | 1.35 | < 3 | < 100 |  |  |  | 
2 | Nc1ncc2c3c1c(-c1ccc(C(=O)Nc4cc(C(F)(F)F)ccn4)cc1)nn3[C@@H]1CCC[C@H](C1)NC(=O)CCCCCC2 [Example 114] | < 5 | < 5 | 100 to 1000 | 500 to 10000 | < 5 | 10 to 50 nM and < 5 nM |  |  | < 100 | < 5 | 1.85 |  | 
3 | C[C@@H]1CC(=O)N[C@@H]2CCC[C@H](C2)n2nc(-c3ccc(C(=O)Nc4cc(C#N)ccn4)cc3)c3c(N)ncc(c32)/C=C/CCN1 [Example 180] | < 5 | < 5 | < 100 | 100 to 500 |  | < 2 nM | 7.27 |  | < 100 |  |  | 7.42 | 1.16
4 | C[C@@H]1CC(=O)N[C@@H]2CC[C@H](C2)n2nc(-c3ccc(C(=O)Nc4cc(C#N)ccn4)cc3)c3c(N)ncc(c32)/C=C/CCN1 [Example 181] | < 5 | < 5 | < 100 | 500 to 10000 |  |  | 5.65 |  | < 100 |  |  | 2.95 | 
5 | N#Cc1ccnc(NC(=O)c2ccc(-c3nn4c5c(cnc(N)c35)/C=C/CCCCCC(=O)N[C@@H]3CC[C@@H]4C3)cc2)c1 [Example 182] | < 5 | < 5 | < 100 | < 100 |  |  | 1.03 |  | < 100 |  |  | 2.96 | 1.07
6 | Nc1ncc2n3c(nc(-c4ccc(C(=O)Nc5cc(C(F)(F)F)ccn5)cc4)c13)[C@@H]1CC[C@H](C1)NC(=O)CCOC/C=C/2 [Example 198] | < 5 | < 5 | < 100 |  |  |  |  |  | < 100 |  | 18.16 | 4.28 | 1.44
7 | N#Cc1ccnc(NC(=O)c2ccc(-c3nc4n5c(cnc(N)c35)/C=C/COCCC(=O)N[C@@H]3CC[C@@H]4C3)cc2)c1 [Example 199] | < 5 | < 5 | < 100 | 500 to 10000 |  |  |  |  | < 100 |  | 1.28 | 1.69 | 0.54
8 | N#Cc1ccnc(NC(=O)c2ccc(-c3nc4n5c(cnc(N)c35)/C=C/COCCC(=O)N[C@@H]3CCC[C@@H]4C3)cc2)c1 [Example 200] | < 5 | < 5 | < 100 | 500 to 10000 |  |  |  |  | < 100 |  | 2.23 | 2.12 | 0.77
9 | Nc1ncc2n3c(nc(-c4ccc(C(=O)Nc5cc(C(F)(F)F)ccn5)cc4)c13)[C@@H]1CC[C@H](C1)NC(=O)CCOCC/C=C/2 [Example 202] | < 5 | < 5 | < 100 | < 100 |  |  |  |  | < 100 |  | 3.15 | 2.20 | 2.16
